In ChEMBL document CHEMBL3774308, “KATching-Up on Small Molecule Modulators of Lysine Acetyltransferases” (J Med Chem, 2016):
pIC50: −log10 of the molar value.

What was measured:
[1] = tested on: Saccharomyces cerevisiae; experiment: Inhibition of yeast RTT109 using histone H3 substrate at 10 uM incubated for 2 to 4 mins by SDS-PAGE based autoradiography in presence of [14C]acetyl-CoA relative to control
[2] = tested on: Saccharomyces cerevisiae; experiment: Inhibition of yeast GCN5 using histone H3 substrate at 10 uM incubated for 2 to 4 mins by SDS-PAGE based autoradiography in presence of [14C]acetyl-CoA relative to control
[3] = target: T1, Histone acetyltransferase KAT2B (Homo sapiens, UniProt Q92831); experiment: Inhibition of PCAF (unknown origin) using H4-15 peptide substrate at 10 uM incubated for 10 mins by radiometric filter binding assay in presence of [14C]acetyl-CoA relative to control
Target sequence in this assay (Q92831 whole entry, looked up): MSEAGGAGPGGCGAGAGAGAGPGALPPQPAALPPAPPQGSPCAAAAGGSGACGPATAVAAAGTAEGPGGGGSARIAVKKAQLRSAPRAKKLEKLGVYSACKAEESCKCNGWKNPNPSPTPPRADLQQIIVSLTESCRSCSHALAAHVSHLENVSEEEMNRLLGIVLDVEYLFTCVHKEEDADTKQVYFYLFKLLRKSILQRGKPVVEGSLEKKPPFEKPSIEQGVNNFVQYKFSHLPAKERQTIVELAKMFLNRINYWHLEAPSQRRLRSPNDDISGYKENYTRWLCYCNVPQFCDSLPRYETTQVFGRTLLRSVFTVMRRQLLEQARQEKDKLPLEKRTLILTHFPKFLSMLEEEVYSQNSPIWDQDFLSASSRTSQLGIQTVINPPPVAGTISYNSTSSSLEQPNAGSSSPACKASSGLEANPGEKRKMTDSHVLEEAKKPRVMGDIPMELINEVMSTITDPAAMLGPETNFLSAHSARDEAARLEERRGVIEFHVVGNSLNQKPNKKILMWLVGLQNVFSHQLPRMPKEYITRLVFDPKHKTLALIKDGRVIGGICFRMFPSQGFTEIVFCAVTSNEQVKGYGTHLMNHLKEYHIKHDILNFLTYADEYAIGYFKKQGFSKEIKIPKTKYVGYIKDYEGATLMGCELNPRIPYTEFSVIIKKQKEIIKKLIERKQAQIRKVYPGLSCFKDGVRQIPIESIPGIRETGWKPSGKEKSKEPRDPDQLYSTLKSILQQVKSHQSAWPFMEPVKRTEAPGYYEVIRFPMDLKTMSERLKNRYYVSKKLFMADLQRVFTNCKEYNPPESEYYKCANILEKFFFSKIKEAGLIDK

[4] = target: Histone acetyltransferase KAT6A (Homo sapiens) (UniProt Q92794); experiment: Inhibition of human MOZ using histone H3 substrate at 10 uM incubated for 2 to 4 mins by SDS-PAGE based autoradiography in presence of [14C]acetyl-CoA relative to control
[5] = tested on: Saccharomyces cerevisiae; experiment: Inhibition of yeast YJW458 TAP-tagged SAS2 expressed in Escherichia coli BL21-CodonPlus(DE3)-RIL cells using histone H3 as substrate at 10 uM incubated for 2 to 4 mins by SDS-PAGE based autoradiography in presence of [14C]acetyl-CoA relative to control
[6] = target: T2, Histone acetyltransferase p300 (Homo sapiens, UniProt Q09472); experiment: Inhibition of full length recombinant human FLAG-tagged p300 expressed in baculovirus expression system using histone substrate incubated for 10 mins by radiometric gel assay
[7] = target: T1, Histone acetyltransferase KAT2B; experiment: Inhibition of full length recombinant human FLAG-tagged PCAF expressed in baculovirus expression system using histone substrate incubated for 10 mins by radiometric gel assay
Target sequence in this assay (Q92831 whole entry): as the sequence (Q92831 whole entry, looked up) above

[8] = target: T2, Histone acetyltransferase p300; experiment: Inhibition of human recombinant p300 catalytic domain (1284 to 1673 residues) expressed in Escherichia coli using H4-8 peptide substrate by radiometric assay in presence of [3H]acetyl-CoA
[9] = target: T1, Histone acetyltransferase KAT2B; experiment: Inhibition of recombinant human PCAF catalytic domain (492 to 658 residues) using histone H3 peptide substrate at 100 uM after 1 hr by liquid scintillation counting method in presence of [3H]acetyl-CoA relative to control
Target sequence in this assay (Q92831 whole entry, looked up): as above

[10] = target: T2, Histone acetyltransferase p300; experiment: Inhibition of recombinant human p300 catalytic domain (1284 to 1673 residues) using histone H3 peptide substrate at 100 uM after 1 hr by liquid scintillation counting method in presence of [3H]acetyl-CoA relative to control
[11] = target: T2, Histone acetyltransferase p300; experiment: Inhibition of human recombinant C-terminal GST-tagged p300 (1195 to 1673 residues) expressed in competent Escherichia coli DH5alpha cells using histone substrate after 30 mins by scintillation counting method in presence of [3H]acetyl-CoA
[12] = target: T3, Histone acetyltransferase KAT5 (Homo sapiens, UniProt Q92993); experiment: Inhibition of recombinant TIP60 (unknown origin) using histone H4 peptide substrate assessed as reduction in NADH formation by spectrophotometric analysis
Target sequence in this assay (Q92993 whole entry): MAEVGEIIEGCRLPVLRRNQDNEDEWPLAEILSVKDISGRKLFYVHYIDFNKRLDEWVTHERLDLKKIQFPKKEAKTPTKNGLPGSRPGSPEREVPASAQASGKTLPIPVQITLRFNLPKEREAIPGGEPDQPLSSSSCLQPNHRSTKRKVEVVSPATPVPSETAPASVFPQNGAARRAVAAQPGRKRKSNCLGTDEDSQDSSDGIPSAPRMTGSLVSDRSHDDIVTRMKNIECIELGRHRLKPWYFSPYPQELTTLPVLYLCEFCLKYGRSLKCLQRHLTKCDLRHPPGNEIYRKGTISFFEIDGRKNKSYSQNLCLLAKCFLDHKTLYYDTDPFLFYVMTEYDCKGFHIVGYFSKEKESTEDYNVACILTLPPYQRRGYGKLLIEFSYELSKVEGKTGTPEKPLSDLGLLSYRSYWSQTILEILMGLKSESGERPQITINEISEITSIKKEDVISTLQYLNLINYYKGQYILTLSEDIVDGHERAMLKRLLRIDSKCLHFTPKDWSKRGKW

[13] = target: CREB-binding protein (Homo sapiens, UniProt Q92793); experiment: Inhibition of recombinant GST-tagged CBP (unknown origin) using histone H4 peptide substrate assessed as reduction in NADH formation by spectrophotometric analysis
[14] = target: T2, Histone acetyltransferase p300; experiment: Inhibition of recombinant GST-tagged p300 (unknown origin) using histone H4 peptide substrate assessed as reduction in NADH formation by spectrophotometric analysis
[15] = target: T1, Histone acetyltransferase KAT2B; experiment: Inhibition of recombinant PCAF (unknown origin) using histone H4 peptide substrate assessed as reduction in NADH formation by spectrophotometric analysis
Target sequence in this assay (Q92831 whole entry): as the sequence (Q92831 whole entry, looked up) above

[16] = target: T2, Histone acetyltransferase p300; experiment: Inhibition of recombinant full length p300 (unknown origin) using N-terminal H4-20 peptide substrate incubated for 7 mins by radiometric gel assay in presence of [14C]acetyl-CoA
[17] = target: T3, Histone acetyltransferase KAT5; experiment: Inhibition of recombinant human GFP-tagged TIP60 expressed in chicken embryo DT40 cells using histone substrate at 500 uM incubated for 1 hr followed by ionizing radiation treatment by immunosorbent gel assay relative to control; format: cell-based
Target sequence in this assay (Q92993 whole entry, looked up): as the sequence (Q92993 whole entry) above

[18] = target: T1, Histone acetyltransferase KAT2B; experiment: Inhibition of recombinant PCAF (unknown origin) expressed in baculovirus expression system using histone substrate at 50 uM after 10 mins by liquid scintillation counting method in presence of [3H]acetyl-CoA relative to control
Target sequence in this assay (Q92831 whole entry, looked up): as the sequence (Q92831 whole entry, looked up) above

[19] = target: T2, Histone acetyltransferase p300; experiment: Inhibition of recombinant p300 (unknown origin) expressed in baculovirus expression system using histone substrate at 50 uM after 10 mins by liquid scintillation counting method in presence of [3H]acetyl-CoA relative to control

T2 sequence (Q09472 whole entry): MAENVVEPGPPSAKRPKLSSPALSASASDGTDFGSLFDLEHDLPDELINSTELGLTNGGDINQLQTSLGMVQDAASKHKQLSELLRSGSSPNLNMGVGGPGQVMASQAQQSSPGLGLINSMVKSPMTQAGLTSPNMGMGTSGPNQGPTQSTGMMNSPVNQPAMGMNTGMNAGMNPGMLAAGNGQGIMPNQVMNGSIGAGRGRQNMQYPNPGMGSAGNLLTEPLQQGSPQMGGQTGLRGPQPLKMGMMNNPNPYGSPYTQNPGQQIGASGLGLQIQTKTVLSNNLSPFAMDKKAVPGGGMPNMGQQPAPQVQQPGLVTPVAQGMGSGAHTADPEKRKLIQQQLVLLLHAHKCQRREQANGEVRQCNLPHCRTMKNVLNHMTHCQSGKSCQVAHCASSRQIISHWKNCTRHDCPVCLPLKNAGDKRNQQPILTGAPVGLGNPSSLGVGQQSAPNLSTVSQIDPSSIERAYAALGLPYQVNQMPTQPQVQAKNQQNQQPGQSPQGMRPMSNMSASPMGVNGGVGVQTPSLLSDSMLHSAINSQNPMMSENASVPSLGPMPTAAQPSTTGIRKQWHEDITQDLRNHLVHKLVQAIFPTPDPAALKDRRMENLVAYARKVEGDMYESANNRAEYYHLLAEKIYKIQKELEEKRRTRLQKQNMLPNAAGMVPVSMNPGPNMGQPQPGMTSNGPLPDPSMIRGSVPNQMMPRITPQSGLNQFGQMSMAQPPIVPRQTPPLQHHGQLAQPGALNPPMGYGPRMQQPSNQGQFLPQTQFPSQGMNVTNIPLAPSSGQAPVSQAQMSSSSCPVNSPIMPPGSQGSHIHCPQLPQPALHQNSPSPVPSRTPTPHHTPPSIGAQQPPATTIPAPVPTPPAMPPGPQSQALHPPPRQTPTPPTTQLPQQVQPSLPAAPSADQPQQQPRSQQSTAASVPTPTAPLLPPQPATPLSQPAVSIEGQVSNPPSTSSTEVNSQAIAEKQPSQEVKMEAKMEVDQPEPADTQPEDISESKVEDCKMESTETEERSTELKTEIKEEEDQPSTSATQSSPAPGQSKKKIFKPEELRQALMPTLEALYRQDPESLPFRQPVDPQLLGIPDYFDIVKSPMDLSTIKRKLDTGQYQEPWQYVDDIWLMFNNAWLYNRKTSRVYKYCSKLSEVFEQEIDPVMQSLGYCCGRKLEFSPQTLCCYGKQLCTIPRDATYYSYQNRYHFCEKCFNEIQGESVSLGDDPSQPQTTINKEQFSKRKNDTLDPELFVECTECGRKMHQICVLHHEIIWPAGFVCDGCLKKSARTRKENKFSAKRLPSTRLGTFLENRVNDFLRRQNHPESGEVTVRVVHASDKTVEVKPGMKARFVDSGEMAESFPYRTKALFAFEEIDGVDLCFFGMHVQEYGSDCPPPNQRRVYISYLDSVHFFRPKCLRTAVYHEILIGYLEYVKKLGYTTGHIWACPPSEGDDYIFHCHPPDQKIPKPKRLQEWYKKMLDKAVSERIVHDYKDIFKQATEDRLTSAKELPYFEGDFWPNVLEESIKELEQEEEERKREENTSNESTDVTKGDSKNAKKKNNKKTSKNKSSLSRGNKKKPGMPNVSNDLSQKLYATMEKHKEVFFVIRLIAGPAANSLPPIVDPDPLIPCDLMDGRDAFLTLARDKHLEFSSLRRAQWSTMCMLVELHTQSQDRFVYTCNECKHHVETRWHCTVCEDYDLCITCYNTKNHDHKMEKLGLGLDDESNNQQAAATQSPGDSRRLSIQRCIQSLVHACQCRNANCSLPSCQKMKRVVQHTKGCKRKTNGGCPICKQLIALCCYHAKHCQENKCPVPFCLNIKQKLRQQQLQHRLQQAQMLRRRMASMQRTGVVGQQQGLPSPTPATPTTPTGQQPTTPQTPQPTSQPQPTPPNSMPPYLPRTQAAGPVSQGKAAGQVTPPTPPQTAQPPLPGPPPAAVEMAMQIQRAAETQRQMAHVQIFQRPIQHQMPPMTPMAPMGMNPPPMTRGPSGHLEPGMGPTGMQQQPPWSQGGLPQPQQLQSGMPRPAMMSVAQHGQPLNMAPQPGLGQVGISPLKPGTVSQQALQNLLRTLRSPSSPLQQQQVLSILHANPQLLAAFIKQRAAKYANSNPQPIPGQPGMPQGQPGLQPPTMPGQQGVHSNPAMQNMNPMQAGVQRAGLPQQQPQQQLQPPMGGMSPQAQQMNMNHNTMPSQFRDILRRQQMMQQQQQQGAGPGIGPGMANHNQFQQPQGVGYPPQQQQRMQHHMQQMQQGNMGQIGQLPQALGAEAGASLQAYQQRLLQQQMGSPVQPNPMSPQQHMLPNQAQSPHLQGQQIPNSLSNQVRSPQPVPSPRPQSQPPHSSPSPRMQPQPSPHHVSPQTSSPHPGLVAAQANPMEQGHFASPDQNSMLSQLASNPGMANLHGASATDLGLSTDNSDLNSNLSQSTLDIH

In the case of CC1=NN(c2ccc(C(=O)O)cc2)C(=O)/C1=C\c1ccc(-c2cc(C)c(C)cc2[N+](=O)[O-])o1, the inhibition [1] was < 10%, the inhibition [2] was < 10% and the inhibition [3] was < 10%. The inhibition [4] was < 10% and the inhibition [5] was < 10%.
Work on CNC(=O)[C@H](C)NC(=O)[C@H](CCCNC(=N)N)NC(=O)[C@@H](NC(=O)[C@H](CCCCN)NC(=O)[C@H](CCC(N)=O)NC(=O)[C@@H](NC(=O)[C@H](C)NC(=O)[C@H](CCCNC(=N)N)NC(=O)[C@H](CC(C)C)NC(=O)[C@H](CO)NC(=O)[C@@H](NC(=O)CNC(=O)CNC(=O)N[C@H](CCCCNC(=O)CSCCNC(=O)CCNC(=O)[C@@H](O)C(C)(C)COP(=O)(O)OP(=O)(O)OC[C@@H]1O[C@H](n2cnc3c(N)ncnc32)[C@@H](O)[C@H]1OP(=O)(O)O)C(=O)N[C@@H](C)C(=O)N1CCC[C@@H]1C(=O)N[C@H](CCCNC(=N)N)C(=O)N[C@H](CCCCN)C(=O)N[C@H](CCC(N)=O)C(=O)N[C@@H](CC(C)C)C(=O)O)[C@H](C)O)[C@H](C)O)[C@H](C)O yielded a pIC50 [6] of 3.70 and a pIC50 [7] of 6.52.
CC(C)(C)OC(=O)NCCCCCNC(=O)CSCCNC(=O)CCNC(=O)[C@H](O)C(C)(C)COP(=O)(O)OP(=O)(O)OC[C@H]1O[C@@H](n2cnc3c(N)ncnc32)[C@H](O)[C@@H]1OP(=O)(O)O was tested, and the pIC50 [8] was 7.15.
In the case of CCCCCCCCCCCCCCC=C(C(=O)OCC)C(=O)OCC, the inhibition [9] was 37.5% and the inhibition [10] was 81.2%.
With N=C(N)NCCC[C@@H]1NC(=O)/C(=C/c2ccc(O)c(OCC[C@H](NC(=O)C[C@](O)(CC(=O)N[C@@H](CC(=O)O)C(=O)O)C(=O)O)C(=O)O)c2)NC1=O the pIC50 [11] was 7.96.
O=C(O[C@@H]1Cc2c(O)cc(O)cc2O[C@@H]1c1cc(O)c(O)c(O)c1)c1cc(O)c(O)c(O)c1 [EPIGALOCATECHIN GALLATE] was tested, and the pIC50 [12] was 4.15, the pIC50 [13] was 4.30 and the pIC50 [14] was 4.52. It also gave a pIC50 [15] of 4.22.
CC(=O)N[C@@H](CCCCNC(=O)CSCCNC(=O)CCNC(=O)[C@H](O)C(C)(C)COP(=O)(O)OP(=O)(O)OC[C@H]1O[C@@H](n2cnc3c(N)ncnc32)[C@H](O)[C@@H]1OP(=O)(O)O)C(N)=O showed a pIC50 [16] of 7.30, a pIC50 [6] of 6.30 and a pIC50 [11] of 8.49. The pIC50 [7] was 3.70.
Compound O=C(O)Cn1nnc(-c2ccc(CN(CCCCOc3ccc(CN4CCCC4)cc3)CCc3ccccc3)cc2)n1 has an inhibition [17] of 60%.
N=C(N)NCCC[C@@H]1NC(=O)/C(=C/c2ccc(O)c(OCC[C@H](NC(=O)C[C@](O)(CC(=O)O)C(=O)O)C(=O)O)c2)NC1=O gave a pIC50 [11] of 7.66.
With COc1cc(/C=C/c2cc(/C=C/c3ccc(O)c(OC)c3)n(-c3ccc(C(=O)O)cc3)n2)ccc1O the inhibition [18] was > 50% and the inhibition [19] was > 50%.
